The test system of data set [1] is Staphylococcus aureus. The data set is described as follows: Antibacterial activity against methicillin-resistant vancomycin-intermediate resistant Staphylococcus aureus NRS402 after 24 hrs by broth microdilution method. It counts as functional. The conditions noted are these: NRS402, 24 h. For orientation: In broth dilution the organism is exposed to a series of concentrations in liquid medium.

Data set [2] concerns Saccharomyces cerevisiae. The data set is described as follows: Toxicity in Saccharomyces cerevisiae BY4741 after 24 to 48 hrs by broth microdilution method. It counts as organism-based. The following applies: in vivo.
Data set [3] deals with Saccharomyces cerevisiae. The data set is described as follows: Toxicity in Saccharomyces cerevisiae harboring rad52/rad9 deletion mutant after 24 to 48 hrs by broth microdilution method. The following applies: in vivo. It counts as organism-based.
The test system of data set [4] is Staphylococcus aureus. The data set is described as follows: Antibacterial activity against methicillin-sensitive Staphylococcus aureus ATCC 25923 after 24 hrs by broth microdilution method. The class given is functional. The following applies: ATCC 25923, 24 h.
The test system of data set [5] is Saccharomyces cerevisiae. The data set is described as follows: Toxicity in Saccharomyces cerevisiae harboring mad2 deletion mutant after 24 to 48 hrs by broth microdilution method. It counts as organism-based. The following applies: in vivo.
For data set [6], the system named is Saccharomyces cerevisiae. The data set is described as follows: Toxicity in Saccharomyces cerevisiae harboring yap1 deletion mutant after 24 to 48 hrs by broth microdilution method. The conditions noted are these: in vivo. The class given is organism-based.
In data set [7] the test system is Enterococcus faecalis. The data set is described as follows: microbe, parasite or virus in culture. The class given is functional. The conditions noted are these: ATCC 29212, 24 h.
Description: Antibacterial activity against Enterococcus faecalis ATCC 29212 after 24 hrs by broth microdilution method
The test system of data set [8] is Saccharomyces cerevisiae. The data set is described as follows: Toxicity in Saccharomyces cerevisiae harboring mad2 deletion mutant assessed as cell growth at 128 uM after 24 to 48 hrs by broth microdilution method relative to control. It counts as organism-based. The conditions noted are these: in vivo.
Data set [9] relates to Saccharomyces cerevisiae. The data set is described as follows: Toxicity in Saccharomyces cerevisiae harboring rad52/rad9 deletion mutant assessed as cell growth at 128 uM after 24 to 48 hrs by broth microdilution method relative to control. It counts as organism-based. The conditions noted are these: in vivo.
For data set [10], the system named is Saccharomyces cerevisiae. The data set is described as follows: Toxicity in Saccharomyces cerevisiae harboring yap1 deletion mutant assessed as cell growth at 128 uM after 24 to 48 hrs by broth microdilution method relative to control. The class given is organism-based. The conditions noted are these: in vivo.
The subject of data set [11] is Saccharomyces cerevisiae. The data set is described as follows: Toxicity in Saccharomyces cerevisiae BY4741 assessed as cell growth at 128 uM after 24 to 48 hrs by broth microdilution method relative to control. The class given is organism-based.

In ChEMBL document CHEMBL4130498, “Synthesis and antibacterial activity of new symmetric polyoxygenated dibenzofurans” (Eur J Med Chem, 2017) one finds MIC and Activity data, which are given here for 10 compounds.

Each structure is given as a SMILES string. Values after ≈ are worked out from the molar mass of the structure shown. Where a name gives a salt, the structure may show the parent alone.

On to `Oc1cc(O)c2c(c1)oc1cc(O)cc(O)c12`, for which the MIC in [1], in [2], in data set [3], in data set [4], in data set [5] and in data set [6] was greater than 128 µM throughout. In data set [7], this compound came in with an MIC greater than 128 µM.

For `CCC(C)C(=O)c1c(O)cc(O)cc1O` (stereo not given), the MIC in data set [1] is 32 µM (≈ 6.73 µg/mL); in [2], greater than 128 µM; in [3], greater than 128 µM; in data set [4], 64 µM (≈ 13.5 µg/mL); in [5], greater than 128 µM; in data set [6], greater than 128 µM. In addition, in [7], the MIC was found to be 64 µM (≈ 13.5 µg/mL).

As for `CCC(C)C(=O)c1c(O)cc(O)c2c1oc1c(C(=O)C(C)CC)c(O)cc(O)c12` (stereo not given), the MIC in data set [1] is 8 µM (≈ 3.2 µg/mL); in [2] it was greater than 128 µM; in data set [3] it was greater than 128 µM; in data set [4], 8 µM (≈ 3.2 µg/mL); in data set [5], greater than 128 µM; in data set [6], greater than 128 µM. In data set [7], the MIC worked out at 32 µM (≈ 12.8 µg/mL).

For `CCC(C)C(=O)c1c(O)cc(O)c(CCC(C)C)c1O` (stereo not given), the Activity in data set [8], in data set [9], in data set [10] and in data set [11] was 20 to 40% each time. Also, the MIC in data set [1] is 32 µM (≈ 8.97 µg/mL); in [2], greater than 128 µM; in data set [3] it was greater than 128 µM; in data set [4], 32 µM (≈ 8.97 µg/mL); in [5], greater than 128 µM; in data set [6], greater than 128 µM. Further, the MIC in data set [7] is 32 µM (≈ 8.97 µg/mL).

For `CCC(C)C(=O)c1c(O)c(CCC(C)C)c(O)c(-c2c(O)c(CCC(C)C)c(O)c(C(=O)C(C)CC)c2O)c1O` (stereo not given), the MIC in data set [1] was 1 µM (≈ 0.559 µg/mL); in [2], greater than 128 µM; in [3] it was greater than 128 µM; in data set [4] it was 8 µM (≈ 4.47 µg/mL); in data set [5] it was greater than 128 µM; in data set [6], greater than 128 µM. The compound also showed an MIC in data set [7] of 4 µM (≈ 2.23 µg/mL).

For the compound `CCCc1c(O)c(C(=O)C(C)CC)c(O)c(-c2c(O)c(CCC)c(O)c(C(=O)C(C)CC)c2O)c1O` (stereo not given), the MIC in data set [1] was 0.5 µM (≈ 0.251 µg/mL); in data set [2], greater than 128 µM; in [3], greater than 128 µM; in [4] it was 4 µM (≈ 2.01 µg/mL); in data set [5], greater than 128 µM; in [6], greater than 128 µM. The compound also displayed an MIC in [7] of 2 µM (≈ 1.01 µg/mL).

As for `CCCc1c(O)cc(O)c(C(=O)C(C)CC)c1O` (stereo not given), the Activity in data set [8], in [9], in data set [10] and in [11] was 20 to 40% each time. Also, the MIC was 64 µM (≈ 16.1 µg/mL) in data set [1]; greater than 128 µM in [2]; greater than 128 µM in data set [3]; 64 µM (≈ 16.1 µg/mL) in [4]; greater than 128 µM in data set [5]; greater than 128 µM in [6]. In addition, the MIC in data set [7] stood at 64 µM (≈ 16.1 µg/mL).

Regarding `CCCc1c(O)c(C(=O)C(C)CC)c2oc3c(C(=O)C(C)CC)c(O)c(CCC)c(O)c3c2c1O` (stereo not given), the MIC in [1] is 0.5 µM (≈ 0.242 µg/mL); in data set [2] it was greater than 128 µM; in data set [3] it was greater than 128 µM; in data set [4], 0.5 µM (≈ 0.242 µg/mL); in data set [5], greater than 128 µM; in data set [6] it was greater than 128 µM. Also, the MIC in data set [7] stood at 0.5 µM (≈ 0.242 µg/mL).

With `Cc1onc(-c2ccccc2)c1C(=O)N[C@@H]1C(=O)N2[C@@H]1SC(C)(C)[C@@H]2C(=O)O`, the results for the MIC in data set [1], in data set [4] and in [7] were 150 µM (≈ 60.2 µg/mL), no more than 0.3 µM and 9.5 µM (≈ 3.81 µg/mL), respectively.

Regarding `CN[C@H](CC(C)C)C(=O)N[C@H]1C(=O)N[C@@H](CC(N)=O)C(=O)N[C@H]2C(=O)N[C@H]3C(=O)N[C@H](C(=O)N[C@H](C(=O)O)c4cc(O)cc(O)c4-c4cc3ccc4O)[C@H](O)c3ccc(c(Cl)c3)Oc3cc2cc(c3O[C@@H]2O[C@H](CO)[C@@H](O)[C@H](O)[C@H]2O[C@H]2C[C@](C)(N)[C@H](O)[C@H](C)O2)Oc2ccc(cc2Cl)[C@H]1O` [VANCOMYCIN HYDROCHLORIDE], the MIC in [1] was found to be 5.5 µM; in data set [4], 0.7 µM; in data set [7], 1.4 µM.
